{"source": "patent US20070043024A1", "about": "“Azacyclic compounds as inhibitors of sensory neurone specific channels” (priority 2003, published 2007)", "data": [{"target": "T1, human Nav1.8 (hNav1.8) ion channel (Homo sapiens, UniProt Q9Y5Y9)", "T1 construct": "expressed in transfected cells", "T1 sequence (Q9Y5Y9 whole entry)": "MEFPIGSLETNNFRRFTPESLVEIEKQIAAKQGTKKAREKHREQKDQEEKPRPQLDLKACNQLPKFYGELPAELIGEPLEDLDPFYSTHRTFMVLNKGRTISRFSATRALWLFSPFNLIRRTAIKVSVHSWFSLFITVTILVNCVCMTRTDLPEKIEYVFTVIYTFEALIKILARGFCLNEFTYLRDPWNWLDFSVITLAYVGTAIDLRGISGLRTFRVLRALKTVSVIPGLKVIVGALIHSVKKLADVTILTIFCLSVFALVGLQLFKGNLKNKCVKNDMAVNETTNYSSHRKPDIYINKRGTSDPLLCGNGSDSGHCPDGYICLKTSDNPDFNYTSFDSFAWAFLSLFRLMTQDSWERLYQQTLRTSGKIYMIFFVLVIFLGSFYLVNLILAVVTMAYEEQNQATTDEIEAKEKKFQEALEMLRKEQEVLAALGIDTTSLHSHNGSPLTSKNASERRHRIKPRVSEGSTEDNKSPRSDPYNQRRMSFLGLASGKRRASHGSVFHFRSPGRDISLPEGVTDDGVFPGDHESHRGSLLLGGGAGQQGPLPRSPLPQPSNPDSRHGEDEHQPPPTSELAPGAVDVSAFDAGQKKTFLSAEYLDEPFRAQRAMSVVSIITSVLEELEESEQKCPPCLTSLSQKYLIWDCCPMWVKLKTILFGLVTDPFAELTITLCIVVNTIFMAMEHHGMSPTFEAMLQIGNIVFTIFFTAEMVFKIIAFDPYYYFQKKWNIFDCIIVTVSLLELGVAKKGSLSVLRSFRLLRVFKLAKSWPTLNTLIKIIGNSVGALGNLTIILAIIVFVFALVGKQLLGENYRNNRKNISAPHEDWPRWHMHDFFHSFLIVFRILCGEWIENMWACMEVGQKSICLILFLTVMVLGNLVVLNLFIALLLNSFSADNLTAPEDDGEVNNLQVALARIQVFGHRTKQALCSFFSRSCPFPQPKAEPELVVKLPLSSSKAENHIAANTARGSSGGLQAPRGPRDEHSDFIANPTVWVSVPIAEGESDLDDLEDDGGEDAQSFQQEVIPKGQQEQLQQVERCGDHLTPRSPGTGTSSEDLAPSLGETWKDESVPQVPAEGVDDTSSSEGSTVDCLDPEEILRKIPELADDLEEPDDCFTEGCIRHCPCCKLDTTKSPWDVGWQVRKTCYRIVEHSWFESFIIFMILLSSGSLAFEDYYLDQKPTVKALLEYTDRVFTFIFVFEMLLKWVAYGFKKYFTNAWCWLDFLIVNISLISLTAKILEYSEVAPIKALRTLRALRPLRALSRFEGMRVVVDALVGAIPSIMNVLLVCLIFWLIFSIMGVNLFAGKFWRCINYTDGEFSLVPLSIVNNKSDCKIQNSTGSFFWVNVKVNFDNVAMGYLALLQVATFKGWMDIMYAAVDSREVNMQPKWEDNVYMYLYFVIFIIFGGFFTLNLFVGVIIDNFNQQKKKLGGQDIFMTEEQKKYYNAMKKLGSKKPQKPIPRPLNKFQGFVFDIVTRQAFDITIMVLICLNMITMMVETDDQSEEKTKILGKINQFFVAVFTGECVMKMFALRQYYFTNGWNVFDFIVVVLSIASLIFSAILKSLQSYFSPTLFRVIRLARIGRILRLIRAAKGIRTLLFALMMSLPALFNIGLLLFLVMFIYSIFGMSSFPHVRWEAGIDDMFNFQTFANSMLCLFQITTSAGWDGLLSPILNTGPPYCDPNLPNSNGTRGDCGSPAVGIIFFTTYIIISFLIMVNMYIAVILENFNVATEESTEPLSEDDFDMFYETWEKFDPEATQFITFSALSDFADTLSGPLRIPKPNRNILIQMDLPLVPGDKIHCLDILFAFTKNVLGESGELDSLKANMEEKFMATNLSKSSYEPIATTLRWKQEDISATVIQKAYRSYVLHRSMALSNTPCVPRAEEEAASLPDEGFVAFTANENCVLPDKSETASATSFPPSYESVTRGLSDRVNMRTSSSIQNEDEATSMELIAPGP", "assay": "Inhibition of human Nav1.8 stably expressed in SH-SY-5Y cells (membrane potential dye fluorescence assay)", "format": "cell-based", "details": "Table 1; SH-SY-5Y hNav1.8 cells, inhibition of membrane depolarisation, FLIPR membrane potential dye, 250 nM TTX, test concentration range 100 μM-0.05 μM; read-out: IC50", "units": {"IC50": "µM"}, "values": [{"compound": "CC(CN1CCc2cccc(O)c2C1)OCc1ccccc1", "note": "(stereo not shown) [Example 48, 2-(2-Benzyloxy-propyl)-1,2,3,4-tetrahydro-isoquinolin-8-ol]", "IC50": 4.84}, {"compound": "S=C(NC(c1ccccc1)c1ccccc1)N1CCc2ccccc2C1", "note": "[Example 50, 3,4-Dihydro-1H-isoquinoline-2-carbothioic acid benzhydryl-amide]", "IC50": 2.74}, {"compound": "COc1cccc2c1CN(C(=S)NCC(c1ccccc1)c1ccccc1)CC2", "note": "[Example 52, 8-Methoxy-3,4-dihydro-1H-isoquinolin-2-carbothioic acid (2,2-diphenyl-ethyl)-amide]", "IC50": 4.68}, {"compound": "O=C(CN1CCc2ccccc2C1)NCC(c1ccccc1)c1ccccc1", "note": "[Example 60, 2-(3,4-Dihydro-1H-isoquinolin-2-yl)-N-(2,2-diphenyl-ethyl)-acetamide]", "IC50": 0.95}, {"compound": "COc1cccc2c1CN(CC(=O)NCC(c1ccccc1)c1ccccc1)CC2", "note": "[Example 61, N-(2,2-Diphenyl-ethyl)-2-(8-methoxy-3,4-dihydro-1H-isoquinolin-2-yl)-acetamide]", "IC50": 2.56}, {"compound": "COc1cccc2c1CN(CC(=O)N1CCN(C(c3ccccc3)c3ccccc3)CC1)CC2", "note": "[Example 62, 1-(4-benzhydryl-piperazin-1-yl)-2-(8-methoxy-3,4-dihydro-1H-isoquinolin-2-yl)-ethanone]", "IC50": 5.63}, {"compound": "COc1cccc2c1CN(CC(=O)N1CCN(C(c3ccc(F)cc3)c3ccc(F)cc3)CC1)CC2", "note": "[Example 63, 1-{4-[Bis-(4-fluoro-phenyl)-methyl]-piperazin-1-yl}-2-(8-methoxy-3,4-dihydro-1H-isoquinolin-2-yl)-ethanone]", "IC50": 15.8}, {"compound": "O=C(CN1CCc2ccccc2C1)N1CCN(C(c2ccccc2)c2ccccc2)CC1", "note": "[Example 64, 1-(4-Benzhydryl-piperazin-1-yl)-2-(3,4-dihydro-1H-isoquinolin-2-yl)-ethanone]", "IC50": 3.14}, {"compound": "O=C(CN1CCc2ccccc2C1)N1CCN(C(c2ccc(F)cc2)c2ccc(F)cc2)CC1", "note": "[Example 65, 1-{4-[Bis-(4-fluoro-phenyl)-methyl]-piperazin-1-yl}-2-(3,4-dihydro-1H-isoquinolin-2-yl)-ethanone]", "IC50": 5.64}, {"compound": "O=C(CN1Cc2ccccc2C1)NCC(c1ccccc1)c1ccccc1", "note": "[Example 66]", "IC50": 2.05}, {"compound": "O=C(CN1Cc2ccccc2C1)N1CCN(C(c2ccccc2)c2ccccc2)CC1", "note": "[Example 67, 1-(4-Benzhydryl-piperazin-1-yl)-2-(1,3-dihydro-isoindol-2-yl)-ethanone]", "IC50": 2.35}, {"compound": "O=C(CN1Cc2ccccc2C1)N1CCN(C(c2ccc(F)cc2)c2ccc(F)cc2)CC1", "note": "[Example 68, 1-{4-[Bis-(4-fluoro-phenyl)-methyl]-piperazin-1-yl}-2-(1,3-dihydro-isoindol-2-yl)-ethanone]", "IC50": 1.95}, {"compound": "COc1cccc2c1CN(CC(=O)NC(c1ccccc1)c1ccccn1)CC2", "note": "(stereo not shown) [Example 69, 2-(8-methoxy-3,4-dihydro-1H-isoquinolin-2-yl)-N-(phenyl-pyridin-2-yl-methyl)-acetamide]", "IC50": 8.96}, {"compound": "O=C(CN1CCc2cccc(O)c2C1)N1c2ccccc2OCC1c1ccccc1", "note": "(stereo not shown) [Example 70, 2-(8-Hydroxy-3,4-dihydro-1H-isoquinolin-2-yl)-1-(3-phenyl-2,3-dihydro-benzo[1,4]oxazin-4-yl)-ethanone]", "IC50": 2.14}, {"compound": "COc1cccc2c1CN(C(C)C(=O)NCCC(c1ccccc1)c1ccccc1)CC2", "note": "(stereo not shown) [Example 77, N-(3,3-Diphenyl-propyl)-2-(8-methoxy-3,4-dihydro-1H-isoquinolin-2-yl)-propionamide]", "IC50": 0.66}, {"compound": "COc1ccc2c(c1)CN(CC(=O)NCCC(c1ccccc1)c1ccccc1)CC2", "note": "[Example 86, N-(3,3-Diphenyl-propyl)-2-(7-methoxy-3,4-dihydro-1H-isoquinolin-2-yl)-acetamide]", "IC50": 1.46}, {"compound": "COc1ccc2c(c1)CN(CC(=O)N(Cc1ccccc1)Cc1ccccc1)CC2", "note": "[Example 87, N,N-Dibenzyl-2-(7-methoxy-3,4-dihydro-1H-isoquinolin-2-yl)-acetamide]", "IC50": 1.1}, {"compound": "COc1ccc2c(c1)CN(CCN(Cc1ccccc1)Cc1ccccc1)CC2", "note": "[Example 88, Dibenzyl-[2-(7-methoxy-3,4-dihydro-1H-isoquinolin-2-yl)-ethyl]-amine]", "IC50": 0.58}, {"compound": "COc1ccc2c(c1)CN(CCNCCC(c1ccccc1)c1ccccc1)CC2", "note": "[Example 89, (3,3-Diphenyl-propyl)-[2-(7-methoxy-3,4-dihydro-1H-isoquinolin-2-yl)-ethyl]amine]", "IC50": 0.49}, {"compound": "Oc1cccc2c1CN(Cc1c(F)cccc1Cl)CC2", "note": "[Example 91, 2-(2-Chloro-6-fluoro-benzyl)-1,2,3,4-tetrahydro-isoquinolin-8-ol]", "IC50": 6.91}, {"compound": "Oc1cccc2c1CN(Cc1cc(F)ccc1F)CC2", "note": "[Example 92, 2-(2,5-Difluoro-benzyl)-1,2,3,4-tetrahydro-isoquinolin-8-ol]", "IC50": 5.27}, {"compound": "Oc1cccc2c1CN(Cc1cc(F)cc(F)c1)CC2", "note": "[Example 93, 2-(3,5-Difluoro-benzyl)-1,2,3,4-tetrahydro-isoquinolin-8-ol]", "IC50": 4.72}, {"compound": "Oc1cccc2c1CN(Cc1ccc(SC(F)(F)F)cc1)CC2", "note": "[Example 94, 2-(4-Trifluoromethylsulfanyl-benzyl)-1,2,3,4-tetrahydro-isoquinolin-8-ol]", "IC50": 2.17}, {"compound": "Oc1cccc2c1CN(Cc1cc(C(F)(F)F)cc(C(F)(F)F)c1)CC2", "note": "[Example 95, 2-(3,5-Bis-trifluoromethyl-benzyl)-1,2,3,4-tetrahydro-isoquinolin-8-ol]", "IC50": 1.71}, {"compound": "Oc1cccc2c1CN(CCCC(c1ccc(F)cc1)c1ccc(F)cc1)CC2", "note": "[Example 96, 2-[4,4-Bis-(4-fluoro-phenyl)-butyl]-1,2,3,4-tetrahydro-isoquinolin-8-ol]", "IC50": 1.94}, {"compound": "Cc1cc(C(C)(CCCN2CCc3cccc(O)c3C2)c2cc(C)c(O)c(C)c2)cc(C)c1O", "note": "[Example 97, 2-[4,4-Bis-(4-hydroxy-3,5-dimethyl-phenyl)-pentyl]-1,2,3,4-tetrahydroisoquinolin-8-ol]", "IC50": 1.06}, {"compound": "N-Benzhydryl-2-(8-methoxy-3,4-dihydro-1H-isoquinolin-2-yl)-N-phenyl-acetamide [Example 21]", "IC50": 1.25}]}, {"target": "T1, human Nav1.8 (hNav1.8) ion channel", "assay": "Inhibition of human Nav1.8 stably expressed in SH-SY-5Y cells (membrane potential dye fluorescence assay)", "format": "cell-based", "details": "Table 2 (compound numbers of the list in the description); SH-SY-5Y hNav1.8 cells, inhibition of membrane depolarisation, FLIPR membrane potential dye, 250 nM TTX, test concentration range 100 μM-0.05 μM; read-out: IC50", "units": {"IC50": "µM"}, "values": [{"compound": "O=C(CN1Cc2ccccc2C1)NCC(c1ccccc1)c1ccccc1", "note": "[Example 66]", "IC50": 2.05}]}]}
